Data reported in patent US20160178613A1, “Electrical Cell-substrate Impedance Sensor (ECIS)” (priority 2015, published 2016).

Legend:
MCF-7 cells = experiment: SiNW-ECIS electrical impedance/capacitance response of MCF-7 cells treated with antitubulin drugs; assay type: cell-based, human; details: PTX 0.1 nano-moles per liter; for changes in membrane impedance vs control sample (normalized, mean) / variations in capacitance of the sensor vs control sample (normalized): MCF-7, 2 hours (T1) after drug incubation; for changes in membrane impedance vs control sample (normalized, mean) / variations in capacitance of the sensor vs control sample (normalized) / change in norm of impedance of treated cells, T1 vs T2 / changes in electrical impedance with respect to control sample / norm of capacitive changes, control sample more than drug value: ABZ 2.1 nano-moles per liter; for changes in electrical impedance with respect to control sample / norm of capacitive changes, control sample more than drug value: MCF-7, 6 hours (T2) after drug incubation
Method: In this example, the diagnostic response of cells membrane to extremely low dose of antitubulin drugs is investigated. Initially, MCF-7 cell lines, isolated from grade I human breast tumors, were obtained from the National Cell Bank of Iran (Pasteur Institute). Then, cells were maintained in a CO2 incubator (37° C., 5% CO2) in RPMI-1640 medium supplemented with 5% fetal bovine serum, and 1% penicillin/streptomycin. The fresh medium was replaced every other day. Then, the cultured cells were dropped on the surface of the SiNW-ECIS, designed and fabricated pursuant to teachings of the present application. Prior to each experiment, cells were trypsinized to be detached from the substrate and resuspended on the SiNW surface. To minimize the effect of trypsinization, the procedure may last for less than 4 minutes at room temperature of about 20° C. The samples were held in an incubator for about 4 hours to achieve cells attachment on the SiNWs. Thereafter, the ABZ drug with low concentrations of about 2.1 nano-moles per liter and the PTX drug with low concentrations of about 0.1 nano-moles per liter were added to individual samples. Finally, the signal recording and biological assays were investigated about 2 hours and 6 hours after the drug treatment (6 hours and 10 hours after the beginning of culturing process).
Referring to FIGS. 12A-12G, comparative normalized diagrams of impedance (designated by ΔZ % and represented by solid black lines) and capacitance changes (designated by ΔC % and represented by dashed grey lines) are illustrated for MCF-7 cells seeded on SiNW electrodes after treating by 2.1 nano-moles per liter of ABZ and 0.1 nano-moles per liter of PTX. The time interval between the drug incubation and the signal extraction are 2 hours (designated by T1) and 6 hours (designated by T2). In addition, the same diagrams are plotted for control sample prepared with no drug treatment stage.
According to the method described in the present example, the samples were maintained in an incubator so that the signal extraction was repeated 10 hours after cells dropping (6 hours after drug incubation for treated samples) to monitor the time evolution of drug induced MT polymerization/depolymerization on bioelectrical response of the membrane.

[1] = test system: tubulin assemblies of MCF-7 cells; experiment: Confocal microscopy of tubulin assemblies of MCF-7 cells; assay type: cell-based, human; details: ABZ 2.1 nano-moles per liter, PTX 0.1 nano-moles per liter
Method: In addition, an un-treated control sample was prepared as reference for comparison. Then, samples were washed with PBS and permeabilized with microtubule stabilizing buffer [80 mM PIPES-KOH (pH 6.8), 5 mM EGTA, and 1 mM MgCl2 containing 0.5% Triton X-100] for 5 min at room temperature before being fixed with chilled absolute methanol for 10 min at −20° C. Thereafter, the fixed cells were washed and incubated with monoclonal mouse anti-α-tubulin antibody (Sigma Co.) for 1 hour at room temperature followed by incubation with FITC-conjugated antimouse IgG antibody (Santa Cruz Biotechnology). The stained cells were mounted with Vectashield (Vector Laboratories, Burlingame, Calif.) and observed by confocal microscopy.

[2] = MCF-7, 2 hours vs 6 hours after drug incubation

SMILES | changes in membrane impedance vs control sample (normalized, mean) (MCF-7 cells) | variations in capacitance of the sensor vs control sample (normalized) (MCF-7 cells) | change in norm of impedance of treated cells, T1 vs T2 (MCF-7 cells; [2]) | changes in electrical impedance with respect to control sample (MCF-7 cells) | norm of capacitive changes, control sample more than drug value (MCF-7 cells) | spindle / microtubule morphology in confocal image ([1]; MCF-7, 2 hours after treatment) | spindle / microtubule morphology in confocal image ([1]; MCF-7, 6 hours after treatment) | time dependent variation in capacitive behavior, T1 vs T2 (MCF-7 cells; [2])
CCCSc1ccc2nc(NC(=O)OC)[nH]c2c1 [ABZ, Albendazole] | 25% | 70% | about 60% | about 90% | about 90% | abnormally reduced numbers of spindles or monopolar (monoaster) spindles | still the monoastered MTs are observable | 
CC(=O)O[C@H]1C(=O)[C@@]2(C)[C@H]([C@H](OC(=O)c3ccccc3)[C@]3(O)C[C@H](OC(=O)[C@H](O)[C@@H](NC(=O)c4ccccc4)c4ccccc4)C(C)=C1C3(C)C)[C@]1(OC(C)=O)CO[C@@H]1C[C@@H]2O [PTX, Paclitaxel] | about 50% | about 60% | 15% | about 30% | ~75% | aggregated spindles | increased aggregation in MT spindles | about 85%
